Key:
wheat = assay: Test A pre-/postemergence greenhouse test; type: in vivo, Triticum aestivum; conditions: for Wheat plant response rating: 0 to 100 scale; for Plant response rating, Wheat: 0 to 100 scale where 0 is no effect and 100 is complete control
Description: (§1) Seeds of barnyardgrass (Echinochloa crus-galli), crabgrass (Digitaria sanguinalis), giant foxtail (Setaria faberi), morningglory (Ipomoea spp.), redroot pigweed (Amaranthus retroflexus), velvetleaf (Abutilon theophrasti), wheat (Triticum aestivum), and corn (Zea mays) were planted into a blend of loam soil and sand and treated preemergence with a directed soil spray using test compounds formulated in a non-phytotoxic solvent mixture which included a surfactant. At the same time these species were also treated with postemergence applications of test compounds formulated in the same manner. Plants ranged in height from two to ten cm and were in the one- to two-leaf stage for the postemergence treatment. Treated plants and untreated controls were maintained in a greenhouse for approximately ten days, after which time all treated plants were compared to untreated controls and visually evaluated for injury. […] A dash (-) response means no test results.

morningglory = assay: Test A pre-/postemergence greenhouse test; type: in vivo, Ipomoea spp.; conditions: for Morningglory plant response rating: 0 to 100 scale; for Plant response rating, Morningglory: 0 to 100 scale where 0 is no effect and 100 is complete control
Description: as §1

velvetleaf = assay: Test A pre-/postemergence greenhouse test; type: in vivo, Abutilon theophrasti; conditions: for Velvetleaf plant response rating: 0 to 100 scale; for Plant response rating, Velvetleaf: 0 to 100 scale where 0 is no effect and 100 is complete control
Description: as §1

barnyardgrass [1] = assay: Test C flooded paddy test; type: in vivo, Echinochloa crus-galli; conditions: Flood
Description: (§2) At time of treatment, test pots were flooded to 3 cm above the soil surface, treated by application of test compounds directly to the paddy water, and then maintained at that water depth for the duration of the test. Treated plants and controls were maintained in a greenhouse for 13 to 15 days, after which time all species were compared to controls and visually evaluated. […] A dash (-) response means no test result.

giant foxtail = assay: Test A pre-/postemergence greenhouse test; type: in vivo, Setaria faberi; conditions: for Foxtail, Giant plant response rating: 0 to 100 scale; for Plant response rating, Foxtail, Giant: 0 to 100 scale where 0 is no effect and 100 is complete control
Description: as §1

umbrella sedge = assay: Test C flooded paddy test; type: in vivo, Cyperus difformis; conditions: Flood
Description: as §2

barnyardgrass [2] = assay: Test A pre-/postemergence greenhouse test; type: in vivo, Echinochloa crus-galli; conditions: for Barnyardgrass plant response rating: 0 to 100 scale; for Plant response rating, Barnyardgrass: 0 to 100 scale where 0 is no effect and 100 is complete control
Description: as §1

crabgrass = assay: Test A pre-/postemergence greenhouse test; type: in vivo, Digitaria sanguinalis; conditions: for Crabgrass, Large plant response rating: 0 to 100 scale; for Plant response rating, Crabgrass, Large: 0 to 100 scale where 0 is no effect and 100 is complete control
Description: as §1

corn = assay: Test A pre-/postemergence greenhouse test; type: in vivo, Zea mays; conditions: for Corn plant response rating: 0 to 100 scale; for Plant response rating, Corn: 0 to 100 scale where 0 is no effect and 100 is complete control
Description: as §1

rice = assay: Test C flooded paddy test; type: in vivo, Oryza sativa; conditions: Flood
Description: as §2

redroot pigweed = assay: Test A pre-/postemergence greenhouse test; type: in vivo, Amaranthus retroflexus; conditions: for Pigweed plant response rating: 0 to 100 scale; for Plant response rating, Pigweed: 0 to 100 scale where 0 is no effect and 100 is complete control
Description: as §1

duck salad = assay: Test C flooded paddy test; type: in vivo, Heteranthera limosa; conditions: Flood
Description: as §2

[3] = Postemergence, 125 g ai/ha, 0 is no effect, 100 is complete control
[4] = Postemergence, 500 g ai/ha, 0 is no effect, 100 is complete control
[5] = Preemergence, 125 g ai/ha, 0 no effect, 100 complete control
[6] = 31 g ai/ha, scale 0 to 100 (0 no effect, 100 complete control)
[7] = 62 g ai/ha, scale 0 to 100, 0 no effect, 100 complete control, 13 to 15 days
[8] = 125 g ai/ha, scale 0 to 100, 0 no effect, 100 complete control, 13 to 15 days
[9] = 250 g ai/ha, scale 0 to 100, 0 no effect, 100 complete control, 13 to 15 days
[10] = Preemergence, 500 g ai/ha, 0 no effect, 100 complete control
[11] = 62 g ai/ha, scale 0 to 100 (0 no effect, 100 complete control)

Cn1nc(C(F)(F)F)c(CS(=O)(=O)c2cc(Br)cc[n+]2[O-])c1Cl [Compound 32]
Wheat plant response rating (wheat; [3]): 0 | Wheat plant response rating (wheat; [4]): 0 | Wheat plant response rating (wheat; [5]): 0 | Plant response rating, Wheat (wheat; Preemergence, 500 g ai/ha): 30 | Morningglory plant response rating (morningglory; [3]): 0 | Morningglory plant response rating (morningglory; [4]): 10 | Morningglory plant response rating (morningglory; [5]): 0 | Plant response rating, Morningglory (morningglory; Preemergence, 500 g ai/ha): 0 | Velvetleaf plant response rating (velvetleaf; [3]): 0 | Velvetleaf plant response rating (velvetleaf; [4]): 0 | Velvetleaf plant response rating (velvetleaf; [5]): 0 | Plant response rating, Velvetleaf (velvetleaf; Preemergence, 500 g ai/ha): 0 | Plant response rating, Barnyardgrass (barnyardgrass [1]; [6]): 0 | Plant response rating, Barnyardgrass (barnyardgrass [1]; [7]): 0 | Plant response rating, Barnyardgrass (barnyardgrass [1]; [8]): 0 | Plant response rating, Barnyardgrass (barnyardgrass [1]; [9]): 0 | Foxtail, Giant plant response rating (giant foxtail; [3]): 0 | Foxtail, Giant plant response rating (giant foxtail; [4]): 0 | Foxtail, Giant plant response rating (giant foxtail; [5]): 0 | Plant response rating, Foxtail, Giant (giant foxtail; Preemergence, 500 g ai/ha): 70 | Plant response rating, Sedge, Umbrella (umbrella sedge; [6]): 0 | Plant response rating, Sedge, Umbrella (umbrella sedge; [7]): 0 | Plant response rating, Sedge, Umbrella (umbrella sedge; [8]): 0 | Plant response rating, Sedge, Umbrella (umbrella sedge; [9]): 50 | Barnyardgrass plant response rating (barnyardgrass [2]; [3]): 0 | Barnyardgrass plant response rating (barnyardgrass [2]; [4]): 30 | Barnyardgrass plant response rating (barnyardgrass [2]; [5]): 0 | Plant response rating, Barnyardgrass (barnyardgrass [2]; Preemergence, 500 g ai/ha): 60 | Crabgrass, Large plant response rating (crabgrass; [3]): 0 | Crabgrass, Large plant response rating (crabgrass; [4]): 0 | Crabgrass, Large plant response rating (crabgrass; [5]): 0 | Plant response rating, Crabgrass, Large (crabgrass; Preemergence, 500 g ai/ha): 0 | Corn plant response rating (corn; [3]): 0 | Corn plant response rating (corn; [4]): 0 | Corn plant response rating (corn; [5]): 0 | Plant response rating, Corn (corn; Preemergence, 500 g ai/ha): 20 | Plant response rating, Rice (rice; [6]): 0 | Plant response rating, Rice (rice; [7]): 0 | Plant response rating, Rice (rice; [8]): 0 | Plant response rating, Rice (rice; [9]): 0 | Pigweed plant response rating (redroot pigweed; [3]): 0 | Pigweed plant response rating (redroot pigweed; [4]): 0 | Pigweed plant response rating (redroot pigweed; [5]): 0 | Plant response rating, Pigweed (redroot pigweed; Preemergence, 500 g ai/ha): 100 | Plant response rating, Ducksalad (duck salad; [6]): 0 | Plant response rating, Ducksalad (duck salad; [7]): 0 | Plant response rating, Ducksalad (duck salad; [8]): 0 | Plant response rating, Ducksalad (duck salad; [9]): 50

Cc1cc[n+]([O-])c([S+]([O-])Cc2c(C(F)(F)F)nn(C)c2OC(C)C(F)(F)F)c1 (stereo not shown) [Compound 88]
Plant response rating, Wheat (wheat; Postemergence, 125 g ai/ha): 30 | Wheat plant response rating (wheat; [4]): 70 | Wheat plant response rating (wheat; [5]): 20 | Wheat plant response rating (wheat; [10]): 80 | Plant response rating, Morningglory (morningglory; Postemergence, 125 g ai/ha): 60 | Morningglory plant response rating (morningglory; [4]): 90 | Morningglory plant response rating (morningglory; [5]): 70 | Plant response rating, Morningglory (morningglory; Preemergence, 500 g ai/ha): 90 | Plant response rating, Velvetleaf (velvetleaf; Postemergence, 125 g ai/ha): 0 | Velvetleaf plant response rating (velvetleaf; [4]): 50 | Velvetleaf plant response rating (velvetleaf; [5]): 0 | Velvetleaf plant response rating (velvetleaf; [10]): 90 | Plant response rating, Barnyardgrass (barnyardgrass [1]; [11]): 0 | Plant response rating, Barnyardgrass (barnyardgrass [1]; [9]): 30 | Plant response rating, Foxtail, Giant (giant foxtail; Postemergence, 125 g ai/ha): 50 | Foxtail, Giant plant response rating (giant foxtail; [4]): 90 | Foxtail, Giant plant response rating (giant foxtail; [5]): 90 | Plant response rating, Foxtail, Giant (giant foxtail; Preemergence, 500 g ai/ha): 100 | Plant response rating, Sedge, Umbrella (umbrella sedge; [11]): 0 | Plant response rating, Sedge, Umbrella (umbrella sedge; [9]): 85 | Plant response rating, Barnyardgrass (barnyardgrass [2]; Postemergence, 125 g ai/ha): 30 | Barnyardgrass plant response rating (barnyardgrass [2]; [4]): 80 | Barnyardgrass plant response rating (barnyardgrass [2]; [5]): 60 | Plant response rating, Barnyardgrass (barnyardgrass [2]; Preemergence, 500 g ai/ha): 100 | Plant response rating, Crabgrass, Large (crabgrass; Postemergence, 125 g ai/ha): 50 | Crabgrass, Large plant response rating (crabgrass; [4]): 80 | Crabgrass, Large plant response rating (crabgrass; [5]): 20 | Plant response rating, Crabgrass, Large (crabgrass; Preemergence, 500 g ai/ha): 90 | Plant response rating, Corn (corn; Postemergence, 125 g ai/ha): 20 | Corn plant response rating (corn; [4]): 60 | Corn plant response rating (corn; [5]): 0 | Plant response rating, Corn (corn; Preemergence, 500 g ai/ha): 50 | Plant response rating, Rice (rice; [11]): 0 | Plant response rating, Rice (rice; [9]): 45 | Plant response rating, Pigweed (redroot pigweed; Postemergence, 125 g ai/ha): 30 | Pigweed plant response rating (redroot pigweed; [4]): 80 | Pigweed plant response rating (redroot pigweed; [5]): 90 | Plant response rating, Pigweed (redroot pigweed; Preemergence, 500 g ai/ha): 100 | Plant response rating, Ducksalad (duck salad; [11]): 0 | Plant response rating, Ducksalad (duck salad; [9]): 70

— US20100298141A1, “SUBSTITUTED PYRIDINE N-OXIDE HERBICIDES” (E. I. DU PONT DE NEMOURS AND COMPANY, priority 2007, published 2010)
